Experimental data taken from patent publication US9642854B2, “Flavanoid compounds and process for preparation thereof” (Council of Scientific & Industrial Research, priority 2009, dated 2017).
Values after ≈ are worked out from the molar mass of the structure shown. Where two headings read alike, the source gives them in different places.

Experiments:
Type in all cases: cell-based, Helicobacter pylori
[1] = tested on: H. pylori; assay: Time kill kinetic analyses in biphasic culture; conditions: for killing at MIC dose (1×MIC): up to 36 h
[2] = tested on: H. pylori; assay: Anti H. pylori screening by disc diffusion susceptibility assay; conditions: for Inhibition zone diameter (score): 100 and 200 mg/disc (so in the source); for Inhibition Zone Diameter (mm): spacer molecules
Procedure: The discs were impregnated with […] of each of the compounds, dissolved either in ethanol or DMSO, and the zone of inhibition was measured after 72 h of growth under microaerophilic conditions at 37° C. Inhibition zone diameter ranging 10-20 mm was given a score of ^+, 20-30 mm as ^++ and that of >30 mm as ^+++, as obtained employing dose range of […]/disc. The detailed structural information of the molecules is provided under ‘Description of the Compounds’.
Methods and protocols for the determination of inhibition zone diameter are as stated under Experiment 1, and that of MIC values by microbroth dilution assay as in Experiment 3. ‘Nil’ means zone of inhibition below 10 mm.
The anti H. pylori activity of all 16 flavonoid molecules, 2 naturally isolated and 14 synthetic derivatives, was screened by disc diffusion sensitivity assay employing 2 clinical strains HP001 and HP002, and three standard strains ATCC® 700392, 43504 and 49503. A 0.5 mL inoculum (10^8 CFU/mL) for each bacterial strain tested was flooded on freshly prepared Brain Heart Infusion (BHI) agar plates supplemented with 7% FCS, 0.5% IsoVitalex and 0.0025% DENT® and the discs (5 mm diameter) containing different compounds or antibiotics (dissolved either in ethanol or DMSO) were placed on the agar surface. After incubation for 3 days in a microaerophilic atmosphere at 37° C., the diameter of the zone of inhibition was measured (Glupczynsky, 1996; McNulty et al., 2002).

[3] = tested on: H. pylori; assay: MIC and MBC by microbroth dilution assay; conditions: Helicobacter pylori
Procedure: The compounds, serially diluted ([…]) in Muller Hinton broth containing 5% FCS, were incubated in 96-well microtitre plate containing fresh cultures of HP001 (˜5.5×10^6 CFU/mL) or ATCC® 43504 (2.65×10^6 CFU/ml) in a final volume of […]. After 72-h of incubation under microaerophilic condition at 37° C., […] of cultures wherein no growth had been detected were streaked on fresh brain heart infusion agar plates for MBC determination.
In microbroth dilution assay employing one clinical and one standard strain, both the bacteriostatic and the bactericidal values were determined for all four compounds as well as for clarithromycin (Table 4). Two-fold serial dilutions were prepared in 96-well microtitre plate containing a total volume of 0.1 mL Mueller Hinton broth supplemented with 5% FCS. A 3-day old liquid culture was diluted 10 times in Mueller Hinton broth and 0.1 mL of these cultures was inoculated into each well to give a final concentration of ˜10^6 CFU/mL. The plates were incubated for 3 days in a microaerophilic atmosphere at 37° C. Following incubation, the plates were examined visually, and the lowest concentration showing complete inhibition of growth was recorded as the MIC of the respective compound (Hachem et al., 1996). Aliquots (0.1 mL) of 72-h culture in which no growth had been detected were taken from the wells of the above microtitre plates and used to streak on fresh BHI agar plates.

[4] = tested on: H. pylori; assay: Acid stability study (pH ~2.0, 2 h, then MIC/MBC by microbroth dilution); conditions: Helicobacter pylori
Procedure: Details of experimental protocol are described under Experiment 7. MIC/MBC values were determined by microbroth dilution assay.
A 100 μL stock of CPP-1, NMC-1, NMC-2 and CPP-3 (1-2 mg/mL) was treated with 20-30 μL of 0.12 NHCl to bring the pH of the solution to ^˜2.0, and kept at 25° C. for 2 h (Funatogawa et al., 2004). Such acid-treated samples were then serially diluted (2 fold) with medium in 96-well microtitre plates to determine the MIC and the MBC values by microbroth dilution assay as detailed under Experiment 3.

[5] = tested on: H. pylori; assay: Anti H. pylori spectrum (MIC) by agar dilution method; conditions: Helicobacter pylori; for MIC50: MIC against 50% of the strains of the panel, read-out: MIC50
Procedure: MIC was determined using agar dilution assay following the CLSI® guidelines. Six clinical isolates and four standard strains were used for this study. Five microlitre of freshly grown 3-day old culture (˜1×10^8 CFU/mL) was streaked in plates containing 2-fold serial dilution of the compounds ranging […], and incubated under microaerophilic condition at 37° C. After 72 h, the plates were inspected visually for absence of growth to assess the MIC values. The experiment was performed in duplicates. MIC50 is defined as the dose (μg/ml) required for killing 50% of the strains.
Plates contained two-fold serial dilutions of the compounds ranging from […]. Five microlitres of 3-day old freshly grown H. pylori culture (^˜10^8 CFU/mL) was inoculated onto drug-containing BHI agar plates supplemented with 7% FCS, 0.5% IsoVitalex and 0.0025% DENT®, which were then incubated for 3 days under microaerophilic condition at 37° C.

[6] = ATCC standard strain 43504, 72 h
[7] = ATCC standard strain 49503, 72 h
[8] = ATCC standard strain 700392, 72 h
[9] = ATCC43504, microbroth dilution, ATCC 43504
[10] = 2 h, pH ~2.0, 2 h, 25° C., 43504, read-out: MBC, Acid treated
[11] = 2 h, pH ~2.0, 2 h, 25° C., 43504, read-out: MIC, Acid treated
[12] = 2 h, pH ~2.0, 2 h, 25° C., HP001, read-out: MBC, Acid treated
[13] = 2 h, pH ~2.0, 2 h, 25° C., HP001, read-out: MIC, Acid treated
[14] = not acid treated, 43504, read-out: MBC, Control
[15] = not acid treated, 43504, read-out: MIC, Control
[16] = not acid treated, HP001, read-out: MBC, Control
[17] = not acid treated, HP001, read-out: MIC, Control
[18] = 72 h, panel of 6 clinical isolates and 4 standard strains, read-out: MIC Range
[19] = clinical strain HP001, read-out: MIC
[20] = clinical strain HP002, read-out: MIC
[21] = clinical strain HP003, read-out: MIC
[22] = clinical strain HP004, read-out: MIC
[23] = clinical strain HP005, read-out: MIC
[24] = clinical strain HP006, read-out: MIC
[25] = standard strain 43504, read-out: MIC
[26] = standard strain 43629, read-out: MIC
[27] = standard strain 49503, read-out: MIC
[28] = standard strain 700392, read-out: MIC

| SMILES | killing at MIC dose (1×MIC) ([1]; HP001) | Inhibition zone diameter (score) [2, 6] | Inhibition zone diameter (score) [2, 7] | Inhibition zone diameter (score) [2, 8] | MBC [3, 9] [µg/mL] | MIC [3, 9] [µg/mL] | MBC ([3]; microbroth dilution, HP001) [µg/mL] | MIC ([3]; microbroth dilution, HP001) [µg/mL] | MIC [5, 18] [µg/mL] | MIC50 [5] [µg/mL] | MIC [5, 19] [µg/mL] | MIC [5, 20] [µg/mL] | MIC [5, 21] [µg/mL] | MIC [5, 22] [µg/mL] | MIC [5, 23] [µg/mL] | MIC [5, 24] [µg/mL] | MIC [5, 25] [µg/mL] | MIC [5, 26] [µg/mL] | MIC [5, 27] [µg/mL] | MIC [5, 28] [µg/mL] | also measured |
| --- | --- | --- | --- | --- | --- | --- | --- | --- | --- | --- | --- | --- | --- | --- | --- | --- | --- | --- | --- | --- | --- |
| O=c1cc(-c2ccccc2)oc2cc(OCCCCN3CCCCC3)cc(O)c12 [CPP-3, 5-Hydroxy-2-phenyl-7-(4-piperidin-1-yl-butoxy)-chromen-4-one] | could not exert any effect on bactericidal activity | ++ (20-30 mm as ^++) | ++ (20-30 mm as ^++) | ++ (20-30 mm as ^++) | 25 (≈ 63.5 µM) | 12.5 (≈ 31.8 µM) | 25 (≈ 63.5 µM) | 12.5 (≈ 31.8 µM) | 6.25 to 100 (≈ 15.9 to 254 µM) | 12.5 (≈ 31.8 µM) | 25 (≈ 63.5 µM) | 25 (≈ 63.5 µM) | < 12.5 | < 12.5 | < 12.5 | < 12.5 | 12.5 (≈ 31.8 µM) | 100 (≈ 254 µM) | 25 (≈ 63.5 µM) | 25 (≈ 63.5 µM) | time to kill the bacteria totally ([1]; ATCC 43504, 50 μg/mL): about 12 h; time to complete killing ([1]; ATCC 43504, 2×MIC (clarithromycin 0.08, CPP-1 and NMC-1 12.5, NMC-2 and CPP-3 25 μg/mL)): about 12 h; killing at MIC dose ([1]; ATCC 43504, MIC ([…])): no killing potency; zone of inhibition at 100 µg/disc ([2]; Helicobacter pylori, 72 h, 100 and 200 μg/disc, majority of the strains, read-out: Activity class by inhibition zone diameter): > 30 mm; Inhibition zone diameter (score) ([2]; clinical strain HP001, 72 h): ++ (20-30 mm as ^++); Inhibition zone diameter (score) ([2]; clinical strain HP002, 72 h): +++ (that of >30 mm as ^+++); MBC [4, 10]: < 50 mg/mL; MIC [4, 11]: 50 mg/mL (≈ 127000 µM); MBC [4, 12]: 50 mg/mL (≈ 127000 µM); MIC [4, 13]: 25 mg/mL (≈ 63500 µM); MBC [4, 14]: 25 mg/mL (≈ 63500 µM); MIC [4, 15]: 12.5 mg/mL (≈ 31800 µM); MBC [4, 16]: 25 mg/mL (≈ 63500 µM); MIC [4, 17]: 12.5 mg/mL (≈ 31800 µM); MIC50 ([5]; 72 h): ~12.5 µg/mL (≈ 31.8 µM) |
| CC[C@H]1OC(=O)[C@H](C)[C@@H](O[C@H]2C[C@@](C)(OC)[C@@H](O)[C@H](C)O2)[C@H](C)[C@@H](O[C@@H]2O[C@H](C)C[C@H](N(C)C)[C@H]2O)[C@](C)(OC)C[C@@H](C)C(=O)[C@H](C)[C@@H](O)[C@]1(C)O [Clarithromycin, reference compound] | – | – | – | – | 0.08 (≈ 0.107 µM) | 0.04 (≈ 0.0535 µM) | 0.04 (≈ 0.0535 µM) | 0.01 (≈ 0.0134 µM) | 0.016 to 0.1 (≈ 0.0214 to 0.134 µM) | 0.032 (≈ 0.0428 µM) | 0.016 (≈ 0.0214 µM) | 0.032 (≈ 0.0428 µM) | < 0.02 | 0.04 (≈ 0.0535 µM) | 0.08 (≈ 0.107 µM) | 0.08 (≈ 0.107 µM) | 0.032 (≈ 0.0428 µM) | 0.1 (≈ 0.134 µM) | 0.016 (≈ 0.0214 µM) | 0.064 (≈ 0.0856 µM) | decrease in cell count ([1]; HP001, at around 9 h): 1 log; time at which killing/inhibition became evident ([1]; HP001, biphasic culture): around 9 h; inhibition zone ([2]; strain 43504, 0.04 mg/disc): 20 mm; inhibition zone ([2]; strain 49503, 0.005 mg/disc): 15 mm; inhibition zone ([2]; strain 700392, 0.4 mg/disc): 28 mm; inhibition zone ([2]; strains HP001 and HP002, 0.01 mg/disc): 18 mm |
| CN1CCN(CCCCCCOc2cc(O)c3c(=O)cc(-c4ccccc4)oc3c2)CC1 [NMC-1, 5-Hydroxy-7-[6-(4-methyl-piperazin-1-yl)-hexyloxy]-2-phenyl-chromen-4-one] | could not however exert complete killing even at 36 h | + (Inhibition zone diameter ranging 10-20 mm was given a score of ^+) | + (Inhibition zone diameter ranging 10-20 mm was given a score of ^+) | + (Inhibition zone diameter ranging 10-20 mm was given a score of ^+) | 25 (≈ 57.3 µM) | 6.25 (≈ 14.3 µM) | 12.5 (≈ 28.6 µM) | 6.25 (≈ 14.3 µM) | 6.25 to 12.5 (≈ 14.3 to 28.6 µM) | 6.25 (≈ 14.3 µM) | 12.5 (≈ 28.6 µM) | 6.25 (≈ 14.3 µM) | < 6.25 | < 6.25 | < 6.25 | < 6.25 | < 12.5 | 12.5 (≈ 28.6 µM) | 6.25 (≈ 14.3 µM) | 12.5 (≈ 28.6 µM) | decrease in cell count within 36 h ([1]; ATCC 43504, at MIC value (6.25 μg/mL)): 1 log; Inhibition zone diameter (score) ([2]; clinical strain HP001, 72 h): + (Inhibition zone diameter ranging 10-20 mm was given a score of ^+); Inhibition zone diameter (score) ([2]; clinical strain HP002, 72 h): ++ (20-30 mm as ^++); MBC [4, 10]: < 25 mg/mL; MIC [4, 11]: 25 mg/mL (≈ 57300 µM); MBC [4, 12]: 25 mg/mL (≈ 57300 µM); MIC [4, 13]: 12.5 mg/mL (≈ 28600 µM); MBC [4, 14]: 25 mg/mL (≈ 57300 µM); MIC [4, 15]: 6.25 mg/mL (≈ 14300 µM); MBC [4, 16]: 12.5 mg/mL (≈ 28600 µM); MIC [4, 17]: 6.25 mg/mL (≈ 14300 µM); MIC50 ([5]; 72 h): ~6.25 µg/mL (≈ 14.3 µM) |
| CCCOc1ccc2c(=O)cc(-c3ccccc3)oc2c1 [reference compound] | – | – | – | – | – | > 400 | – | > 400 | – | – | – | – | – | – | – | – | – | – | – | – | Inhibition Zone Diameter (mm) ([2]; ATCC 43504): Nil (‘Nil’ means zone of inhibition below 10 mm.); Inhibition Zone Diameter (mm) ([2]; HP001): Nil (‘Nil’ means zone of inhibition below 10 mm.) |
